Data taken from US8217013B2, “Polyene diester antibiotics” (priority 2007, dated 2012).
Like-named read-outs stand apart in the source and are kept apart here.

Tests used:
Assay in all cases: Test of antibacterial activity in vitro (bacteria-inhibition zone)
Format in all cases: cell-based
Candida albicans = conditions: for zone of inhibition at 5.6 µg/mL: Candida albicans
Excerpt: (§1) Test of Antibacterial Activity In Vitro
(§2) Experiment drugs: the polyene diester compounds prepared by examples 1-12
(§3) Control drugs: amphotericin B (standard product) • mycostatin (standard product) • natamycin (standard product)
2.1 Preparation of Candida albicans suspension: PHARMACOPOEIA OF THE PEOPLES REPUBLIC OF CHINA, second part, 2005 edition, appendix p 81-84.
(§4) Taking appropriate amount of the above mentioned amphotericin B, mycostatin, natamycin and the polyene diester compounds prepared by examples 1-8 and 10-12, dissolving in a little dimethyl sulfoxide respectively, using pH7 phosphate buffer to dilute into solution which is equivalent to contain amphotericin B, mycostatin, natamycin 280 Units per milliliter, taking 1 ml and using pH7 phosphate buffer to quantitatively dilute into solution which is equivalent to contain amphotericin B 1.4 μg/ml and 2.8 μg/ml, and is equivalent to contain 5.6 μg/ml of mycostatin and natamycin.
(§5) In addition, preparing the solution according to the same method, adding 40% defibered sheep serum, using pH7 phosphate buffer to quantitatively dilute into unit solution which is equivalent to contain amphotericin B 1.4 μg/ml and 2.8 μg/ml, and is equivalent to contain 5.6 μg/ml of mycostatin and natamycin. Testing according to PHARMACOPOEIA OF THE PEOPLES REPUBLIC OF CHINA, second part, 2005 edition, appendix XIA The Antibiotics Microorganism Test.
(§6) Medium: Improved Martin Agar Medium, PHARMACOPOEIA OF THE PEOPLES REPUBLIC OF CHINA, second part, 2005 edition, appendix p 84.
Test method: Double-plate counting method; […] bacteria bed 15 ml to replace the double layers, culture temperature: 37° C., time: 24 h; strain concentration: 1% […]

Saccharomyces cerevisiae = conditions: for zone of inhibition at 5.6 µg/mL: Saccharomyces cerevisiae, 5.6 μg/ml after conversion; for diameter of the bacteria-inhibition zone, Saccharomyces cerevisiae 0 h / diameter of the bacteria-inhibition zone, Saccharomyces cerevisiae 6 h / diameter of the bacteria-inhibition zone, Saccharomyces cerevisiae 24 h / diameter of the bacteria-inhibition zone, Saccharomyces cerevisiae 48 h: 2.8 μg/ml after conversion
Excerpt: as §1, §2, §3
2.2 Preparation of Saccharomyces cerevisiae suspension: PHARMACOPOEIA OF THE PEOPLES REPUBLIC OF CHINA, second part, 2005 edition, appendix p 80, p 83.
as §4, §5, §6
(§7) Test method: Double-plate counting method; […] bacteria bed 15 ml to replace the double layers, culture temperature: 37° C., time: 24 h; strain concentration: 1%
(§8) Medium: Modified Martin Broth Medium

Candida mycoderma = conditions: for zone of inhibition at 5.6 µg/mL: 5.6 μg/ml after conversion; for diameter of the bacteria-inhibition zone, Candida mycoderma 0 h / diameter of the bacteria-inhibition zone, Candida mycoderma 6 h / diameter of the bacteria-inhibition zone, Candida mycoderma 24 h / diameter of the bacteria-inhibition zone, Candida mycoderma 48 h: 2.8 μg/ml after conversion
Excerpt: as §1, §2, §3
2.3 Preparation of Candida mycoderrna suspension: the method is as same as preparation of Saccharomyces cerevisiae suspension
as §4, §5, §6, §7, §8

[1] = 0 h, 2.8 μg/ml after conversion, no serum
[2] = 0 h, 2.8 μg/ml after conversion, serum added (40% defibered sheep serum)
[3] = 6 h, 2.8 μg/ml after conversion, no serum
[4] = 24 h, 2.8 μg/ml after conversion, no serum
[5] = 48 h, 2.8 μg/ml after conversion, no serum
[6] = 0 h, serum added (40% defibered sheep serum)

Compound	diameter of the bacteria-inhibition zone, Candida albicans 0 h (Candida albicans; [1])	diameter of the bacteria-inhibition zone, Candida albicans 0 h (Candida albicans; [2])	diameter of the bacteria-inhibition zone, Candida albicans 6 h (Candida albicans; [3])	diameter of the bacteria-inhibition zone, Candida albicans 24 h (Candida albicans; [4])	diameter of the bacteria-inhibition zone, Candida albicans 48 h (Candida albicans; [5])	diameter of the bacteria-inhibition zone, Saccharomyces cerevisiae 0 h (Saccharomyces cerevisiae; 0 h, no serum)	diameter of the bacteria-inhibition zone, Saccharomyces cerevisiae 0 h (Saccharomyces cerevisiae; [6])	diameter of the bacteria-inhibition zone, Saccharomyces cerevisiae 6 h (Saccharomyces cerevisiae; 6 h, no serum)	diameter of the bacteria-inhibition zone, Saccharomyces cerevisiae 24 h (Saccharomyces cerevisiae; 24 h, no serum)	diameter of the bacteria-inhibition zone, Saccharomyces cerevisiae 48 h (Saccharomyces cerevisiae; 48 h, no serum)	diameter of the bacteria-inhibition zone, Candida mycoderma 0 h (Candida mycoderma; 0 h, no serum)	diameter of the bacteria-inhibition zone, Candida mycoderma 0 h (Candida mycoderma; [6])	diameter of the bacteria-inhibition zone, Candida mycoderma 6 h (Candida mycoderma; 6 h, no serum)	diameter of the bacteria-inhibition zone, Candida mycoderma 24 h (Candida mycoderma; 24 h, no serum)	diameter of the bacteria-inhibition zone, Candida mycoderma 48 h (Candida mycoderma; 48 h, no serum)	other results
C[C@@H]1C/C=C/C=C/C=C/C=C/[C@H](O[C@@H]2O[C@H](C)[C@@H](O)[C@H](N)[C@@H]2O)C[C@@H]2O[C@](O)(C[C@@H](O)C[C@H]3O[C@@H]3/C=C/C(=O)O1)C[C@H](O)[C@H]2C(=O)O [Natamycin, natamycin, reference compound]	–	–	–	–	–	–	–	–	–	–	–	–	–	–	–	diameter of the bacteria-inhibition zone, Candida albicans 0 h (Candida albicans; 0 h, 5.6 μg/ml after conversion, serum added (40% defibered sheep serum)): ++ (9-12 mm: ++); diameter of the bacteria-inhibition zone, Candida albicans 6 h (Candida albicans; 6 h, 5.6 μg/ml after conversion, serum added (40% defibered sheep serum)): ++ (9-12 mm: ++); diameter of the bacteria-inhibition zone, Candida albicans 24 h (Candida albicans; 24 h, 5.6 μg/ml after conversion, serum added (40% defibered sheep serum)): ++ (9-12 mm: ++); diameter of the bacteria-inhibition zone, Candida albicans 48 h (Candida albicans; 48 h, 5.6 μg/ml after conversion, serum added (40% defibered sheep serum)): ++ (9-12 mm: ++); zone of inhibition at 5.6 µg/mL (Candida albicans; 0 h, 5.6 μg/ml after conversion, no serum, read-out: diameter of the bacteria-inhibition zone, Candida albicans 0 h): 9 to 12 mm; zone of inhibition at 5.6 µg/mL (Candida albicans; 6 h, 5.6 μg/ml after conversion, no serum, read-out: diameter of the bacteria-inhibition zone, Candida albicans 6 h): 9 to 12 mm; zone of inhibition at 5.6 µg/mL (Candida albicans; 24 h, 5.6 μg/ml after conversion, no serum, read-out: diameter of the bacteria-inhibition zone, Candida albicans 24 h): 9 to 12 mm; zone of inhibition at 5.6 µg/mL (Candida albicans; 48 h, 5.6 μg/ml after conversion, no serum, read-out: diameter of the bacteria-inhibition zone, Candida albicans 48 h): 9 to 12 mm; zone of inhibition at 5.6 µg/mL (Saccharomyces cerevisiae; 0 h, no serum, read-out: diameter of the bacteria-inhibition zone, Saccharomyces cerevisiae 0 h): 14 to 16 mm; zone of inhibition at 5.6 µg/mL (Saccharomyces cerevisiae; 0 h, serum added (40% defibered sheep serum), read-out: diameter of the bacteria-inhibition zone, Saccharomyces cerevisiae 0 h): 12 to 14 mm; zone of inhibition at 5.6 µg/mL (Saccharomyces cerevisiae; 6 h, no serum, read-out: diameter of the bacteria-inhibition zone, Saccharomyces cerevisiae 6 h): 14 to 16 mm; zone of inhibition at 5.6 µg/mL (Saccharomyces cerevisiae; 6 h, serum added (40% defibered sheep serum), read-out: diameter of the bacteria-inhibition zone, Saccharomyces cerevisiae 6 h): 12 to 14 mm; zone of inhibition at 5.6 µg/mL (Saccharomyces cerevisiae; 24 h, no serum, read-out: diameter of the bacteria-inhibition zone, Saccharomyces cerevisiae 24 h): 14 to 16 mm; zone of inhibition at 5.6 µg/mL (Saccharomyces cerevisiae; 24 h, serum added (40% defibered sheep serum), read-out: diameter of the bacteria-inhibition zone, Saccharomyces cerevisiae 24 h): 12 to 14 mm; zone of inhibition at 5.6 µg/mL (Saccharomyces cerevisiae; 48 h, no serum, read-out: diameter of the bacteria-inhibition zone, Saccharomyces cerevisiae 48 h): 14 to 16 mm; zone of inhibition at 5.6 µg/mL (Saccharomyces cerevisiae; 48 h, serum added (40% defibered sheep serum), read-out: diameter of the bacteria-inhibition zone, Saccharomyces cerevisiae 48 h): 12 to 14 mm; zone of inhibition at 5.6 µg/mL (Candida mycoderma; 0 h, no serum, read-out: diameter of the bacteria-inhibition zone, Candida mycoderma 0 h): 12 to 14 mm; zone of inhibition at 5.6 µg/mL (Candida mycoderma; 6 h, no serum, read-out: diameter of the bacteria-inhibition zone, Candida mycoderma 6 h): 12 to 14 mm; zone of inhibition at 5.6 µg/mL (Candida mycoderma; 24 h, no serum, read-out: diameter of the bacteria-inhibition zone, Candida mycoderma 24 h): 12 to 14 mm; zone of inhibition at 5.6 µg/mL (Candida mycoderma; 48 h, no serum, read-out: diameter of the bacteria-inhibition zone, Candida mycoderma 48 h): 12 to 14 mm
CC(OC(=O)OC1CCCCC1)OC(=O)C1C(O)CC2(O)CC(O)CC(O)C(O)CCC(O)CC(O)CC(=O)OC(C)C(C)C(O)C(C)C=CC=CC=CC=CC=CC=CC=CC(OC3OC(C)C(O)C(N)C3O)CC1O2 (stereo not drawn) [amphotericin B cyclohexyloxycarbonyloxyethyl ester]	+ (7-9 mm: +)	+ (7-9 mm: +)	+ (7-9 mm: +)	+ (7-9 mm: +)	+ (7-9 mm: +)	++ (9-12 mm: ++)	++ (9-12 mm: ++)	++ (9-12 mm: ++)	++ (9-12 mm: ++)	++ (9-12 mm: ++)	++ (9-12 mm: ++)	++ (9-12 mm: ++)	++ (9-12 mm: ++)	++ (9-12 mm: ++)	++ (9-12 mm: ++)	diameter of the bacteria-inhibition zone, Candida albicans 6 h (Candida albicans; 6 h, 2.8 μg/ml after conversion, serum added (40% defibered sheep serum)): ++ (9-12 mm: ++)
CCOC(=O)OC(C)OC(=O)[C@H]1[C@@H]2C[C@@H](OC3OC(C)C(O)C(N)C3O)/C=C/C=C/C=C/C=C/C=C/C=C/C=C/[C@H](C)[C@@H](O)[C@@H](C)[C@H](C)OC(=O)C[C@H](O)C[C@H](O)CC[C@@H](O)[C@H](O)C[C@H](O)C[C@](O)(C[C@@H]1O)O2 (stereo partly drawn) [amphotericin B ethoxycarbonyloxyethyl ester]	–	–	–	–	–	++ (9-12 mm: ++)	++ (9-12 mm: ++)	++ (9-12 mm: ++)	++ (9-12 mm: ++)	++ (9-12 mm: ++)	+ (7-9 mm: +)	+ (7-9 mm: +)	+ (7-9 mm: +)	+ (7-9 mm: +)	+ (7-9 mm: +)	diameter of the bacteria-inhibition zone, Candida mycoderma 6 h (Candida mycoderma; 6 h, serum added (40% defibered sheep serum)): ++ (9-12 mm: ++)
CC(C)OC(=O)OC(C)OC(=O)C1C(O)CC2(O)CC(O)CC(O)C(O)CCC(O)CC(O)CC(=O)OC(C)C(C)C(O)C(C)C=CC=CC=CC=CC=CC=CC=CC(OC3OC(C)C(O)C(N)C3O)CC1O2 (stereo not drawn) [amphotericin B isopropoxycarbonyloxyethyl ester]	++ (9-12 mm: ++)	++ (9-12 mm: ++)	++ (9-12 mm: ++)	++ (9-12 mm: ++)	++ (9-12 mm: ++)	+ (7-9 mm: +)	++ (9-12 mm: ++)	+ (7-9 mm: +)	+ (7-9 mm: +)	+ (7-9 mm: +)	++ (9-12 mm: ++)	++ (9-12 mm: ++)	++ (9-12 mm: ++)	++ (9-12 mm: ++)	++ (9-12 mm: ++)	–
amphotericin B ethyl acetate	–	–	–	–	–	+ (7-9 mm: +)	++ (9-12 mm: ++)	+ (7-9 mm: +)	+ (7-9 mm: +)	+ (7-9 mm: +)	++ (9-12 mm: ++)	++ (9-12 mm: ++)	++ (9-12 mm: ++)	++ (9-12 mm: ++)	++ (9-12 mm: ++)	–
